Experimental data published in US20180049996A1, “THERAPEUTIC AGENT FOR CHRONIC RESPIRATORY DISEASE AND COMPOSITION FOR INHIBITING CARDIAC FIBROSIS” (NIPPON HYPOX LABORATORIES INCORPORATED, priority 2015, published 2018).

How the values were obtained:
Type in all cases: in vivo, female SD rats
[1] = tested on: Myocardial Disorder Induced by Doxorubicin; assay: Relative weights of the hearts, myocardial disorder induced by doxorubicin; conditions: Test group 1: doxorubicin 13 mg/kg alone
Excerpt: Doxorubicin is used to produce disease-model animals of cardiomyopathy. […] The recombinant human erythropoietin (rHuEPO) is mainly used in the treatment of renal anemia etc., and has the effect to protect myocardium. The test group 3 is used to confirm the presence or absence of the inhibitory effect brought about by combining HTHQ and rHuEPO on myocardial disorder. […] Recombinant human erythropoietin was daily administered to the rats in test group 3 starting from 3 days before the administration of doxorubicin by intravenous injection. The number of animals in each group was 16. 8 animals of each group were sacrificed after collecting blood on day 7 and 14 after the administration of doxorubicin, and the autopsy of the hearts, the calculation of the relative weights of the hearts, the histopathologic examination of the hearts and the hematological examination were conducted. Myocardium is hypertrophied by fibrosing and the weight of the myocardium increases, and the relative weight of the heart tends to increase. […] Also, there was no significant difference between the other groups on day 7 and 14 after the administration (p<0.05).

[2] = tested on: Myocardial Disorder Induced by Doxorubicin; assay: Histopathologic examination of the hearts (transmission electron microscope), myocardial disorder induced by doxorubicin; conditions: Test group 1: doxorubicin 13 mg/kg alone; day 7
Procedure: (§1) Doxorubicin is used to produce disease-model animals of cardiomyopathy. The doxorubicin and 2,3,5-trimethylhydroquinone-1-hexyl ether (HTHQ) as the hydroquinone derivative represented by the general formula (1) described above of the present invention were simultaneously administered to female SD rats of 4 week old after birth to examine the effect of the action. The test groups consisted of the control group to which sterile saline was administered; test group 1 to which doxorubicin (13 mg/kg body weight) alone was administered; test group 2 to which doxorubicin (13 mg/kg body weight) and HTHQ (50 mg/kg body weight) were administered in combination; and test group 3 to which doxorubicin (13 mg/kg body weight), HTHQ (50 mg/kg body weight) and recombinant human erythropoietin (400 IU/kg body weight) were administered in combination. […] The test group 3 is used to confirm the presence or absence of the inhibitory effect brought about by combining HTHQ and rHuEPO on myocardial disorder.
Doxorubicin was orally administered in a single dose to the rats in test groups 1 to 3. 2,3,5-trimethylhydroquinone-1-hexyl ether (HTHQ) was orally administered to the rats in test groups 2 and 3 twice in total: 3 days before the administration of doxorubicin and on the day of the administration. […]

[3] = tested on: Myocardial Disorder Induced by Doxorubicin; assay: Histopathologic examination of the hearts (light microscope), myocardial disorder induced by doxorubicin; conditions: Test group 1: doxorubicin 13 mg/kg alone
Procedure: as §1
Doxorubicin was orally administered in a single dose to the rats in test groups 1 to 3. 2,3,5-trimethylhydroquinone-1-hexyl ether (HTHQ) was orally administered to the rats in test groups 2 and 3 twice in total: 3 days before the administration of doxorubicin and on the day of the administration. Recombinant human erythropoietin was daily administered to the rats in test group 3 starting from 3 days before the administration of doxorubicin by intravenous injection. The number of animals in each group was 16. 8 animals of each group were sacrificed after collecting blood on day 7 and 14 after the administration of doxorubicin, and the autopsy of the hearts, the calculation of the relative weights of the hearts, the histopathologic examination of the hearts and the hematological examination were conducted.
“−” indicates “not found”, “+” indicates “mild”, “++” indicates “moderate”, and “+++” indicates “severe” in severity scores of the table.

[4] = tested on: Myocardial Disorder Induced by Doxorubicin; assay: Autopsy and gross pathology of the hearts, myocardial disorder induced by doxorubicin; conditions: test groups 1 to 3, doxorubicin 13 mg/kg; compared to the control group
Procedure: (§2) Doxorubicin is used to produce disease-model animals of cardiomyopathy. The doxorubicin and 2,3,5-trimethylhydroquinone-1-hexyl ether (HTHQ) as the hydroquinone derivative represented by the general formula (1) described above of the present invention were simultaneously administered to female SD rats of 4 week old after birth to examine the effect of the action. The test groups consisted of the control group to which sterile saline was administered; test group 1 to which doxorubicin (13 mg/kg body weight) alone was administered; test group 2 to which doxorubicin (13 mg/kg body weight) and HTHQ (50 mg/kg body weight) were administered in combination; and test group 3 to which doxorubicin (13 mg/kg body weight), HTHQ (50 mg/kg body weight) and recombinant human erythropoietin (400 IU/kg body weight) were administered in combination. The recombinant human erythropoietin (rHuEPO) is mainly used in the treatment of renal anemia etc., and has the effect to protect myocardium. The test group 3 is used to confirm the presence or absence of the inhibitory effect brought about by combining HTHQ and rHuEPO on myocardial disorder.
(§3) Doxorubicin was orally administered in a single dose to the rats in test groups 1 to 3. […]

[5] = tested on: Creatine phosphokinase (CPK); assay: Creatine phosphokinase (CPK) value in blood, myocardial disorder induced by doxorubicin; conditions: Test group 1: doxorubicin 13 mg/kg alone; day 14; p<0.05
Procedure: as §2, §3

relative weight of the heart ([1]; Day 7 after administration): 0.3819 ± 0.0204% | relative weight of the heart ([1]; Day 14 after administration): 0.3626 ± 0.0221% | Severity score: Cell infiltration in interstitial tissue ([3]; Day 7 after administration): + | Severity score: Degeneration of myocardial cells ([3]; Day 7 after administration): ++ | Severity score: Loss and disorganization of myocardial fibers ([3]; Day 7 after administration): ++ | Severity score: Loss of intercalated discs ([3]; Day 7 after administration): + | Severity score: Loss of striations ([3]; Day 7 after administration): ++ | Severity score: Vacuolation of myocardial fibers ([3]; Day 7 after administration): + | Severity score: Cell infiltration in interstitial tissue ([3]; Day 14 after administration): − | Severity score: Degeneration of myocardial cells ([3]; Day 14 after administration): +++ | Severity score: Loss and disorganization of myocardial fibers ([3]; Day 14 after administration): +++ | Severity score: Loss of intercalated discs ([3]; Day 14 after administration): ++ | Severity score: Loss of striations ([3]; Day 14 after administration): +++ | Severity score: Vacuolation of myocardial fibers ([3]; Day 14 after administration): +++ | gross pathology of the hearts [4]: Apparent lesions were not observed
Compound: COc1cccc2c1C(=O)c1c(O)c3c(c(O)c1C2=O)C[C@@](O)(C(=O)CO)C[C@@H]3O[C@H]1C[C@H](N)[C@H](O)[C@H](C)O1 [doxorubicin, reference compound]
findings in myocardial cells (transmission electron microscope) [2]: Loss of striations, loss of intercalated discs, swelling of mitochondria, loss of mitochondrial outer membrane and detachment of cristae etc. were observed | creatine phosphokinase (CPK) value [5]: significantly higher than that of the control group
